Key:
[1] = system: E. coli (J-53); settings: ref [4],[7]; cited from earlier work
[2] = system: Gram+ bacteria; settings: ref [4],[7]; cited from earlier work
[3] = system: VRE; test: MIC determination in 96-well plates; format: cell-based, E. faecium; settings: Enterococcus, read-out: MIC VRE

Row | Structure (SMILES) | activity against the Gram- bacterium E. coli [1] | MIC values against various organisms [2] [mg/L] | MIC [3] [mg/L]
1 | CCc1cc(Nc2cc(=O)n(CCCCO)c(=O)[nH]2)ccc1C [Compound 1, HB-EMAU] | inactive | 2.5 to 5 | –
2 | CCc1cc(Nc2nc(O)c3ncn(CCCCO)c3n2)ccc1C [Compound 2b] | – | – | > 80
3 | CCc1cc(Nc2cc3c(ncn3CCCCOC)c(=O)[nH]2)ccc1C [Compound 19b] | – | – | > 80
4 | CCc1cc(Nc2cc3c(ncn3CCCCN3CCOCC3)c(=O)[nH]2)ccc1C [Compound 21b] | – | – | > 80

Source: publication PMC3128661 (Bioorganic & medicinal chemistry letters, 2011)
